Laboratory results: ChEMBL document CHEMBL2440045, “The synthesis and anticancer activity of analogs of the indole phytoalexins brassinin, 1-methoxyspirobrassinol methyl ether and cyclobrassinin” (Bioorg Med Chem, 2013)

Key:
Format in all cases: functional, cell-based
[1] = tested on: HeLa; assay: Antiproliferative activity against human HeLa cells assessed as cell viability after 72 hrs by MTT assay
[2] = tested on: MCF7; assay: Antiproliferative activity against human MCF7 cells assessed as cell viability after 72 hrs by MTT assay; conditions: MCF7, 72 h
[3] = tested on: CCRF-CEM; assay: Antiproliferative activity against human CCRF-CEM cells assessed as cell viability after 72 hrs by MTT assay
[4] = tested on: MDA-MB-231; assay: Antiproliferative activity against human MDA-MB-231 cells assessed as cell viability after 72 hrs by MTT assay; conditions: MDA-MB-231, 72 h
[5] = tested on: Jurkat; assay: Antiproliferative activity against human Jurkat cells assessed as cell viability after 72 hrs by MTT assay
[6] = tested on: A549; assay: Antiproliferative activity against human A549 cells assessed as cell viability after 72 hrs by MTT assay; conditions: A549, 72 h

IC50 [1] [µM]	IC50 [2] [µM]	IC50 [3] [µM]	IC50 [4] [µM]	IC50 [5] [µM]	IC50 [6] [µM]	SMILES
72.5	55.1	5.9	33.1	8.7	62.9	c1ccc2c3c([nH]c2c1)SC(N1CCOCC1)=NC3
71.7	95	28	42.4	75.5	91.5	CN(C1=NCc2c([nH]c3ccccc23)S1)c1ccccc1
67.2	43.2	4.7	34.3	5.2	43.4	CNC1=NCc2c([nH]c3ccccc23)S1
65	64.3	3.9	30.9	5.2	55.3	c1ccc2c3c([nH]c2c1)SC(NC1CCCCC1)=NC3
40.7	37.1	6.6	35.5	7.3	42.2	c1ccc2c3c([nH]c2c1)SC(N1CCCCC1)=NC3
16.9	23	19.6	21.4	17.8	21.4	CSC(=S)NCc1cn(C(=O)OC(C)(C)C)c2ccccc12
20.4	0.72	90.7	28	3.1	6.6	CC(C)(C)OC(=O)n1cc(CNC(=S)Nc2ccccc2)c2ccccc21
4.5	8.5	3.8	13	4.3	6.8	CC(C)(C)OC(=O)n1cc(CNC(=S)Nc2ccc(Br)cc2)c2ccccc21
10.7	27.6	12	22.2	19.8	24.3	CC(C)(C)OC(=O)n1cc(CNC(=S)Nc2ccc(F)cc2)c2ccccc21
4	8.6	3.8	17.1	4.2	7.6	CC(C)(C)OC(=O)n1cc(CNC(=S)Nc2ccc(Cl)cc2)c2ccccc21
34	92	22	> 100	30	> 100	COc1ccc(NC(=S)NCc2cn(C(=O)OC(C)(C)C)c3ccccc23)cc1
29	30	16	37.4	20	31.3	Cc1ccc(NC(=S)NCc2cn(C(=O)OC(C)(C)C)c3ccccc23)cc1
14	9.3	3.8	8.6	3	11.5	CC(C)(C)OC(=O)n1cc(CNC(=S)Nc2ccc([N+](=O)[O-])cc2)c2ccccc21
4	3.5	3.5	4.5	3	4	CC(C)(C)OC(=O)n1cc(CNC(=S)Nc2ccc(C(F)(F)F)cc2)c2ccccc21
6.6	3.5	2.9	4.1	3.6	3.6	CC(C)(C)OC(=O)n1cc(CNC(=S)Nc2cc(C(F)(F)F)cc(C(F)(F)F)c2)c2ccccc21
> 100	> 100	> 100	> 100	> 100	> 100	CN(C(=S)NCc1cn(C(=O)OC(C)(C)C)c2ccccc12)c1ccccc1
> 100	> 100	> 100	> 100	> 100	> 100	CNC(=S)NCc1cn(C(=O)OC(C)(C)C)c2ccccc12
8	21.5	7	37.5	11	33.5	CC(C)(C)OC(=O)n1cc(CNC(=S)NC2CCCCC2)c2ccccc21
36.8	> 100	37	> 100	37.6	60.1	CC(C)(C)OC(=O)n1cc(CNC(=S)N2CCCCC2)c2ccccc21
80	> 100	> 100	> 100	95.8	> 100	CC(C)(C)OC(=O)n1cc(CNC(=S)N2CCOCC2)c2ccccc21
20.2	32.9	14.4	35.6	25.7	31.4	CO[C@H]1N(C(=O)OC(C)(C)C)c2ccccc2[C@@]12CN=C(Nc1ccc(C)cc1)S2 (racemic)
23	31.5	19	35.5	9	30.5	CO[C@@H]1N(C(=O)OC(C)(C)C)c2ccccc2[C@@]12CN=C(Nc1ccc(C)cc1)S2 (racemic)

IC50 [1] [µM]	IC50 [2] [µM]	IC50 [3] [µM]	IC50 [4] [µM]	IC50 [5] [µM]	IC50 [6] [µM]	SMILES
31.3	33	18.4	37.5	20.2	33	CO[C@H]1N(C(=O)OC(C)(C)C)c2ccccc2[C@@]12CN=C(Nc1ccc([N+](=O)[O-])cc1)S2 (racemic)
32.7	26.5	7.2	28.6	9.3	24.6	CO[C@H]1N(C(=O)OC(C)(C)C)c2ccccc2[C@@]12CN=C(Nc1ccc(C(F)(F)F)cc1)S2 (racemic)
11.3	11.1	6.7	21.3	5.6	17.9	CO[C@@H]1N(C(=O)OC(C)(C)C)c2ccccc2[C@@]12CN=C(Nc1ccc(C(F)(F)F)cc1)S2 (racemic)
34.2	20.9	17.2	38.6	21.5	29	CO[C@@H]1N(C(=O)OC(C)(C)C)c2ccccc2[C@@]12CN=C(Nc1cc(C(F)(F)F)cc(C(F)(F)F)c1)S2 (racemic)
8.2	1.5	18.3	31.7	5.9	–	CO[C@H]1N(C(=O)OC(C)(C)C)c2ccccc2[C@@]12CN=C(N(C)c1ccccc1)S2 (racemic)
32	28	26.6	27.5	26	28.7	CO[C@@H]1N(C(=O)OC(C)(C)C)c2ccccc2[C@@]12CN=C(N(C)c1ccccc1)S2 (racemic)
> 100	> 100	44.4	> 100	83.4	> 100	CNC1=NC[C@]2(S1)c1ccccc1N(C(=O)OC(C)(C)C)[C@@H]2OC (racemic)
> 100	> 100	53	> 100	42	> 100	CNC1=NC[C@]2(S1)c1ccccc1N(C(=O)OC(C)(C)C)[C@H]2OC (racemic)
32	27.5	5.1	26.1	5.2	27.7	CO[C@H]1N(C(=O)OC(C)(C)C)c2ccccc2[C@@]12CN=C(NC1CCCCC1)S2 (racemic)
36.7	37.2	29.1	41.4	27	38	CO[C@@H]1N(C(=O)OC(C)(C)C)c2ccccc2[C@@]12CN=C(NC1CCCCC1)S2 (racemic)
54.9	52.6	26.1	61.3	24.9	54.2	CO[C@H]1N(C(=O)OC(C)(C)C)c2ccccc2[C@@]12CN=C(N1CCCCC1)S2 (racemic)
62.3	64.4	30.7	69	33.1	55.4	CO[C@@H]1N(C(=O)OC(C)(C)C)c2ccccc2[C@@]12CN=C(N1CCCCC1)S2 (racemic)
55.5	70.1	51.4	69.3	31.3	> 100	CO[C@H]1N(C(=O)OC(C)(C)C)c2ccccc2[C@@]12CN=C(N1CCOCC1)S2 (racemic)
76	69.5	35.9	> 100	34.5	> 100	CO[C@@H]1N(C(=O)OC(C)(C)C)c2ccccc2[C@@]12CN=C(N1CCOCC1)S2 (racemic)
100	100	100	100	100	100	CON1c2ccccc2C2(CN=C(SC)S2)C1O (racemic)
78	100	30.6	82.8	34	100	CSC1=NC[C@]2(S1)c1ccccc1N(C(=O)OC(C)(C)C)[C@@H]2O (racemic)
93.6	100	27.1	95	29.8	100	CSC1=NC[C@]2(S1)c1ccccc1N(C(=O)OC(C)(C)C)[C@H]2O (racemic)
72.4	27.4	33	64	47.7	74	CC(C)(C)OC(=O)N1c2ccccc2[C@@]2(CN=C(Nc3ccccc3)S2)[C@H]1O (racemic)
> 100	2.7	64.3	> 100	5.3	> 100	CN(C1=NC[C@]2(S1)c1ccccc1N(C(=O)OC(C)(C)C)[C@@H]2O)c1ccccc1 (racemic)
22.3	30.3	22.8	32.4	21.6	28.7	CN(C1=NC[C@]2(S1)c1ccccc1N(C(=O)OC(C)(C)C)[C@H]2O)c1ccccc1 (racemic)
–	65	–	–	44	–	CO[C@@H]1N(OC)c2ccccc2[C@@]12CN=C(SC)S2 (racemic)
